Measured values as given in patent EP3884941A1, “INFLAMMASOME INHIBITORS AND USE THEREOF” (CENTRO DE INVESTIGACION PRINCIPE FELIPE, priority 2020, dated 2021).

Legend:
NLRC4 inflammasome = NLRC4 inflammasome activation, Salmonella Typhimurium, THP-1 cells; assay type: cell-based, human; settings: MM01 10 µM
Description: The materials and methods employed in these experiments are now described. The molecules were evaluated in the THP-1, or PMA-differentiated THP-1 cells (50 nM PMA for 24h) as described in Example 3. To stimulate NLRP1 inflammasome, cells were either mock-treated or primed with compounds at the indicated concentrations for 30 min, followed by treatment with 100 ng/mL LPS (Sigma) and 50 µg/ml MDP (Sigma) for 6 h at 37°C. In the case of NLRC4 inflammasome induction, cells were pretreated with the compounds for 30 min and then cells were stimulated for 3 h with Salmonella Typhimurium (MOI 5). To induce AIM2 inflammasome, cells were pretreated in the same conditions as before and transfected with poly(dA:dT) (200 µg/ml; Sigma) overnight using Lipofectamine 2000 (Invitrogen). Both IL-1β secretion and the release of IL-18 were monitored as previously described in Example 3.

Apoptosome = target: T1, Apoptosome (Homo sapiens, UniProt O14727); experiment: Apoptosome activity assay; assay type: biochemical; settings: reconstituted in vitro; MM01 5 µM (Figure 2C)
T1 sequence (O14727 1-1248): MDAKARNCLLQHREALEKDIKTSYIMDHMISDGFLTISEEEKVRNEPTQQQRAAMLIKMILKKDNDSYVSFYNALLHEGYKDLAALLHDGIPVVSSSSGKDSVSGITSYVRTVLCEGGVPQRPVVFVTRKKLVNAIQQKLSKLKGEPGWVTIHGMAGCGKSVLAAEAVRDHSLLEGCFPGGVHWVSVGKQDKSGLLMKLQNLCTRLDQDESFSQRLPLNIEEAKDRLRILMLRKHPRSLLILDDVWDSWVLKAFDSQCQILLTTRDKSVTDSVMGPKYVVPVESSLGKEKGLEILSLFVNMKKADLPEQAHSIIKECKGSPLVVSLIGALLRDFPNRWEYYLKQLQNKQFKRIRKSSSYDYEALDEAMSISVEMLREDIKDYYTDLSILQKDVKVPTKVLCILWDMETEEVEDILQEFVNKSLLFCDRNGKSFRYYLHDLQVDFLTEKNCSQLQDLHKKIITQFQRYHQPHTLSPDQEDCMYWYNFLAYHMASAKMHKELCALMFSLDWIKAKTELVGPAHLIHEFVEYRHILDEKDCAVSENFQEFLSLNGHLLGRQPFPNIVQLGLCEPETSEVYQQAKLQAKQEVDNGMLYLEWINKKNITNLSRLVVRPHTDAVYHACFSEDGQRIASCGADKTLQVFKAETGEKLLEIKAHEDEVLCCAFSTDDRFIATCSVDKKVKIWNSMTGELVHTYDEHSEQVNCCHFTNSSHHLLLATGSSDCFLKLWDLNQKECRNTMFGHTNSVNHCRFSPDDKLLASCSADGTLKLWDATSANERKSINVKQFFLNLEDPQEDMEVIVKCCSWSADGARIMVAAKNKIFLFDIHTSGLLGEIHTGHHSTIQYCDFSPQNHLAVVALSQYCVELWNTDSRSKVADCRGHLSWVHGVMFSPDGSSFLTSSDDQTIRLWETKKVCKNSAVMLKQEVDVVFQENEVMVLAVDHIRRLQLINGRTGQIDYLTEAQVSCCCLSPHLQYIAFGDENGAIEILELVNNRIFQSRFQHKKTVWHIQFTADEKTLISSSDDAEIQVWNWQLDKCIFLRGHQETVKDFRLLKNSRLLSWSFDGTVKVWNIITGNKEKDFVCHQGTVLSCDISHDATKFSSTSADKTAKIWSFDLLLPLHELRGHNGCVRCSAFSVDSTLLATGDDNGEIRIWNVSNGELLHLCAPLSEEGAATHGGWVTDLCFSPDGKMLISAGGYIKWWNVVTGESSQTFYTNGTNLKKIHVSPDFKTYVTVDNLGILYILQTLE
Description: Apoptosome was reconstituted by incubating rApaf-1 (100 nM) with vehicle (DMSO) or compounds in assay buffer (20 mM HEPES, 10 mMKCI, 1.5 mM MgCI2, 1 mM EDTA, 1 mM EGTA, 1 mM DTT, 0.1 mM PMSF) at 30°C for 30 min. Next, 100 µM dATP and 100 nM Cytc were added and incubated for additional 40 min. Then, caspase-9 (100 nM) was added, and activity was monitored by the Ac-LEHD-afc substrate (50 µM) using a Victor 2 spectrofluorimeter.

[1] = tested on: NLRP3 activation in MSU-induced peritonitis; experiment: MSU-induced peritonitis mouse model; assay type: in vivo, C57BL/6 mice; settings: 10 mg/kg i.p. 30 min before MSU 2 mg/mouse i.p.
Description: We next evaluated the efficacy of MM01 in a murine MSU-induced peritonitis model. (Spalinger MR et al. Bio-protocol 2018; 8(5): e2754). Mono-sodium urate (MSU; InvivoGen) crystals are potent activators of the NLRP3 receptor. Upon activation, NLRP3 induces the formation of inflammasome complex, which lead to the production and release of mature IL-1β. In the early phase of peritonitis, the number of infiltrating neutrophils correlates with the production of mature IL-1β. MM01 was injected intraperitoneal 30 min before MSU crystals i.p. injection.
In vivo model was performed according to the protocol approved by the Institutional Animal Ethical Committee of CIPF. C57BL/6 mice were injected i.p. with 10 mg/kg MM01 or vehicle 30 min before i.p. injection of MSU (2 mg MSU crystals in 200 µl sterile PBS). After 6 h, mice were sacrificed, and peritoneal lavage with 5 ml of PBS was performed. Cytokine IL-1β secretion was determined by ELISA (#DY401 R&D Systems) and neutrophil content measured in ACVLAB Laboratorio Valencia.

What does the source list for `C=CCN1C(=O)/C(=C2/C(=O)Nc3ccccc32)SC1=S` [MM01]?
cytokine maturation and release (NLRC4 inflammasome; THP-1, Salmonella infection (MOI 5)): impaired; pyroptosis (NLRC4 inflammasome; THP-1, Salmonella infection, LDH): decrease; inhibition of the apoptosome (Apoptosome): No inhibition; neutrophil recruitment ([1]; peritoneal cavity after 6 h): efficiently suppressed; MSU injection-induced IL-1β production ([1]; peritoneal lavage after 6 h, ELISA): efficiently suppressed
